In ChEMBL document CHEMBL1201862, “PubChem BioAssay data set” (2004):
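48-hour exposure; five concentrations; linearly interpolated endpoints. GI50: concentration for 50% inhibition of growth.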 The source made the active and inactive calls. No stated cut-off is given here; in the data, active = GI50 up to about 1.1 µM and inactive = higher.

Experiments:
Experiment in all cases: inhibition of tumour cell growth, NCI panel, 48 h
CAKI-1 = system: CAKI-1
EKVX = system: EKVX
HCC 2998 = system: HCC 2998
HCT-116 = system: HCT-116
HL-60 = system: HL-60
KM12 = system: KM12
LOX IMVI = system: LOX IMVI
MOLT-4 = system: MOLT-4
Malme-3M = system: Malme-3M
NCI/ADR-RES = system: NCI/ADR-RES
OVCAR-5 = system: OVCAR-5
SK-MEL-2 = system: SK-MEL-2
SK-MEL-5 = system: SK-MEL-5
SK-OV-3 = system: SK-OV-3
SNB-75 = system: SNB-75
SW-620 = system: SW-620
T47D = system: T47D

Compound	GI50 (CAKI-1)	GI50 (EKVX)	GI50 (HCC 2998)	GI50 (HCT-116)	GI50 (HL-60)	GI50 (KM12)	GI50 (LOX IMVI)	GI50 (MOLT-4)	GI50 (Malme-3M)	GI50 (NCI/ADR-RES)	GI50 (OVCAR-5)	GI50 (SK-MEL-2)	GI50 (SK-MEL-5)	GI50 (SK-OV-3)	GI50 (SNB-75)	GI50 (SW-620)	GI50 (T47D)
Cn1c2ccccc2c(=O)c2cccc(C(=O)NC(CCC(N)=O)C(=O)O)c21 (stereo unspecified)	> 100 µM (inactive)	> 100 µM (inactive)	> 100 µM (inactive)	> 100 µM (inactive)	0.0585 µM (active)	> 100 µM (inactive)	> 100 µM (inactive)	> 100 µM (inactive)	> 100 µM (inactive)	60.3 µM (inactive)	> 100 µM (inactive)	> 100 µM (inactive)	> 100 µM (inactive)	> 100 µM (inactive)	> 100 µM (inactive)	> 100 µM (inactive)	> 100 µM (inactive)
Cc1ccc2c(c1)-c1c(C#N)c(N)nc(-c3ccccc3)c1CCS2(=O)=O	10.5 µM (inactive)	18.7 µM (inactive)	8.13 µM (inactive)	6.38 µM (inactive)	0.204 µM (active)	4.85 µM (inactive)	12.6 µM (inactive)	7.53 µM (inactive)	2.45 µM (inactive)	5.26 µM (inactive)	10.1 µM (inactive)	> 29.2 µM (inactive)	3.03 µM (inactive)	5.53 µM (inactive)	3.72 µM (inactive)	5.6 µM (inactive)	15.1 µM (inactive)
c1cc(C2=NCCO2)c2ccsc2c1	> 100 µM (inactive)	> 100 µM (inactive)	> 100 µM (inactive)	> 100 µM (inactive)	> 100 µM (inactive)	> 100 µM (inactive)	> 100 µM (inactive)	> 100 µM (inactive)	> 100 µM (inactive)	> 100 µM (inactive)	> 100 µM (inactive)	> 100 µM (inactive)	> 100 µM (inactive)	> 100 µM (inactive)	0.0573 µM (active)	> 100 µM (inactive)	> 100 µM (inactive)
COC1(C)CCC(OS(C)(=O)=O)CO1 (stereo unspecified)	> 100 µM (inactive)	> 100 µM (inactive)	> 100 µM (inactive)	> 100 µM (inactive)	> 100 µM (inactive)	> 100 µM (inactive)	> 100 µM (inactive)	> 100 µM (inactive)	> 100 µM (inactive)	> 100 µM (inactive)	> 100 µM (inactive)	> 100 µM (inactive)	> 100 µM (inactive)	> 100 µM (inactive)	> 100 µM (inactive)	> 100 µM (inactive)	> 100 µM (inactive)
COc1cc(-c2nc3ccccn3c2/N=C/c2cc(Br)cc(Br)c2O)ccc1O	29.2 µM (inactive)	19.1 µM (inactive)	79.6 µM (inactive)	18.4 µM (inactive)	18.2 µM (inactive)	24.2 µM (inactive)	24 µM (inactive)	22.9 µM (inactive)	23.3 µM (inactive)	22 µM (inactive)	31.4 µM (inactive)	22.3 µM (inactive)	25.5 µM (inactive)	23.9 µM (inactive)	24 µM (inactive)	26.4 µM (inactive)	23.3 µM (inactive)
CCCCCCCCCCC(O)C1CCC(C2CCC(C(O)CCCCC(O)CCCCCC(O)CC3=CC(C)OC3=O)O2)O1 (stereo unspecified)	> 25 µM (inactive)	4.09 µM (inactive)	> 25 µM (inactive)	0.748 µM (active)	2.36 µM (inactive)	3.78 µM (inactive)	2.69 µM (inactive)	2.97 µM (inactive)	> 25 µM (inactive)	2.46 µM (inactive)	> 25 µM (inactive)	> 25 µM (inactive)	0.258 µM (active)	> 25 µM (inactive)	5.16 µM (inactive)	> 25 µM (inactive)	> 11.8 µM (inactive)
O=C1N/C(=N/N=C/C(O)C(O)C(O)CO)N/C1=C\c1c[nH]c2ccccc12 (stereo unspecified)	> 100 µM (inactive)	> 100 µM (inactive)	> 100 µM (inactive)	> 100 µM (inactive)	> 100 µM (inactive)	> 100 µM (inactive)	> 100 µM (inactive)	> 100 µM (inactive)	> 100 µM (inactive)	> 100 µM (inactive)	> 100 µM (inactive)	–	> 100 µM (inactive)	> 100 µM (inactive)	> 100 µM (inactive)	> 100 µM (inactive)	> 100 µM (inactive)
COc1cc2c(cc1OC)[C@H]1C(=O)c3cc4c(cc3[C@H]1N(C)C2=O)OCO4	3.13 µM (inactive)	> 100 µM (inactive)	37.6 µM (inactive)	2.22 µM (inactive)	1.77 µM (inactive)	36.6 µM (inactive)	1.5 µM (inactive)	0.3 µM (active)	7.53 µM (inactive)	4.81 µM (inactive)	> 100 µM (inactive)	> 100 µM (inactive)	1.96 µM (inactive)	6.7 µM (inactive)	8.77 µM (inactive)	2.44 µM (inactive)	> 28.2 µM (inactive)
O=C1OC(C2(O)OC(=O)c3ccccc32)c2ccccc21 (stereo unspecified)	> 100 µM (inactive)	62.4 µM (inactive)	> 100 µM (inactive)	> 100 µM (inactive)	> 100 µM (inactive)	> 100 µM (inactive)	> 100 µM (inactive)	> 100 µM (inactive)	–	> 100 µM (inactive)	> 100 µM (inactive)	> 100 µM (inactive)	> 100 µM (inactive)	> 100 µM (inactive)	> 100 µM (inactive)	> 100 µM (inactive)	> 100 µM (inactive)
O=C1CC2CCC(C1)[S+]2[O-] (stereo unspecified)	> 100 µM (inactive)	> 100 µM (inactive)	> 100 µM (inactive)	> 100 µM (inactive)	> 100 µM (inactive)	> 100 µM (inactive)	> 100 µM (inactive)	> 100 µM (inactive)	> 100 µM (inactive)	> 100 µM (inactive)	–	> 100 µM (inactive)	> 100 µM (inactive)	> 100 µM (inactive)	> 100 µM (inactive)	> 100 µM (inactive)	> 100 µM (inactive)
N#Cc1c(N)c2c(c(-c3ccccc3)c1-c1ccccc1)C(=O)N(Nc1ccccc1)C2=O	63.1 µM (inactive)	42.4 µM (inactive)	35.8 µM (inactive)	12.9 µM (inactive)	22.8 µM (inactive)	24.2 µM (inactive)	16.9 µM (inactive)	27.4 µM (inactive)	> 100 µM (inactive)	38.2 µM (inactive)	27 µM (inactive)	30.1 µM (inactive)	28.8 µM (inactive)	–	38.4 µM (inactive)	> 100 µM (inactive)	19.4 µM (inactive)
Nc1nc(Nc2ccccc2)c2[nH]cnc2n1	49.2 µM (inactive)	> 100 µM (inactive)	86.3 µM (inactive)	69 µM (inactive)	37.3 µM (inactive)	35.6 µM (inactive)	77.6 µM (inactive)	38.9 µM (inactive)	30.6 µM (inactive)	> 100 µM (inactive)	–	66.2 µM (inactive)	86.5 µM (inactive)	84.5 µM (inactive)	9.57 µM (inactive)	> 100 µM (inactive)	> 100 µM (inactive)
COc1ccc(C[C@@H](C(=O)O[C@H](C)[C@H](NC(=O)[C@@H](CC(C)C)N(C)C(=O)C2CCCN2C(=O)[C@H](C)O)C(=O)N2CCCCNC(=O)[C@@H](C)C(=O)[C@H](C(C)C)OC(=O)C[C@H](O)[C@H]2CC(C)C)N(C)C(C)=O)cc1 (stereo partly specified)	10.8 µM (inactive)	6.78 µM (inactive)	9.33 µM (inactive)	4.76 µM (inactive)	10.9 µM (inactive)	4.89 µM (inactive)	–	8.41 µM (inactive)	10.2 µM (inactive)	21.3 µM (inactive)	7.89 µM (inactive)	17.7 µM (inactive)	3.95 µM (inactive)	16.1 µM (inactive)	9.84 µM (inactive)	5.85 µM (inactive)	10.7 µM (inactive)
Cc1cc2c(cc1Cl)SC(NNCCO)=NS2(=O)=O	> 100 µM (inactive)	> 100 µM (inactive)	> 100 µM (inactive)	> 100 µM (inactive)	> 100 µM (inactive)	> 100 µM (inactive)	> 100 µM (inactive)	> 100 µM (inactive)	–	> 100 µM (inactive)	–	> 100 µM (inactive)	73.1 µM (inactive)	> 100 µM (inactive)	> 100 µM (inactive)	> 100 µM (inactive)	> 100 µM (inactive)
COCc1cc2c(cc1/C=C/[N+](=O)[O-])OCO2	19.6 µM (inactive)	17.8 µM (inactive)	17.5 µM (inactive)	17.9 µM (inactive)	23.4 µM (inactive)	20.8 µM (inactive)	27.5 µM (inactive)	> 100 µM (inactive)	–	25.2 µM (inactive)	16.4 µM (inactive)	–	19.4 µM (inactive)	17.9 µM (inactive)	17.9 µM (inactive)	17.7 µM (inactive)	21.1 µM (inactive)
C/C(=C\COP(=O)(O)OP(=O)(O)O)CCCCCCOCc1ccccc1	> 100 µM (inactive)	> 100 µM (inactive)	> 100 µM (inactive)	> 100 µM (inactive)	> 100 µM (inactive)	> 100 µM (inactive)	> 100 µM (inactive)	> 100 µM (inactive)	> 100 µM (inactive)	> 100 µM (inactive)	> 100 µM (inactive)	–	> 100 µM (inactive)	> 100 µM (inactive)	> 100 µM (inactive)	> 100 µM (inactive)	> 100 µM (inactive)
